From US12492182B2, “Hydroxytriazine compounds and pharmaceutical use thereof” (Japan Tobacco Inc., priority 2015, dated 2025)
pIC50: −log10 of the molar value. Where two headings read alike, the source gives them in different places.

How the values were obtained:
[1] = test system: A549 cell; experiment: Evaluation of PGE2 production inhibitory action using A549 cell (IL-1β stimulated); format: cell-based, human; details: recombinant human IL-1β stimulation, read-out: cell PGE2 production inhibitory activity (IC50 value)
Summary of the method: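 A549 cells (human lung cancer) in F-12K with 2% FBS were preincubated with test article for 30 min, then stimulated with IL-1β (1 ng/mL final) for 18 hr at 37 °C; 0.5% DMSO final. Supernatant PGE2 was measured by HTRF against a standard curve; inhibition is relative to vehicle and unstimulated blank wells.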

[2] = Measurement of solubility in Britton-Robinson buffer solution (pH 8.5) containing 0.5 W/V % polysorbate 80; format: physicochemical; details: Britton-Robinson buffer pH 8.5 containing 0.5 W/V % polysorbate 80, 20° C., 18 hr
Experimental: Experimental Example 5: Measurement of Solubility
(2) Britton-Robinson Buffer Solution (pH 8.5) Containing 0.5 W/V % Polysorbate 80
The test article was weighted in glass microtube, and dispersed in Britton-Robinson buffer solution (pH 8.5, 1.5 mL) containing 0.5 W/V % polysorbate 80 to prepare a suspension. The suspension was shaked at 20° C. for 18 hr, and filtered through a membrane filter (0.45 μm), and the filtrate was used as a sample.
(3) Preparation of Standard Solution and Sample Solution, and Measurement of Solubility
Sample solution was prepared by appropriately diluting sample with a mixture of water/acetonitrile (1:1). Standard solution was prepared by precisely weighting the test article, and then diluting the test article with a mixture of water/acetonitrile (1:1). The standard solution and sample solution were analyzed by liquid chromatography, and the test article content of the sample solution was calculated according to external standard method, based on which the solubility was determined.

[3] = biological target: T1, human mPGES-1 (Homo sapiens, UniProt O14684); experiment: Evaluation of human mPGES-1 enzyme inhibitory activity (HTRF measurement of PGE2); format: biochemical; details: IC50 value; microsome fraction of CHO-S cells expressing human mPGES-1, PGH2 substrate, PGE2 by HTRF; read-out: humans mPGES-1 enzyme inhibitory activity
T1 construct: made in house; host or cells: Chinese hamster ovary-derived cells (FreeStyle CHO-S), transient transfection of pcDNA3.1(+)/human mPGES-1; microsome fraction
T1 sequence (O14684 1-152): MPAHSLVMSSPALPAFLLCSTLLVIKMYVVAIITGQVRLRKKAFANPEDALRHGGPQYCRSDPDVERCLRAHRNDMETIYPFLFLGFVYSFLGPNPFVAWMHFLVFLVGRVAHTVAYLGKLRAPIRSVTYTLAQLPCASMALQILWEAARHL
Summary of the method: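 Enzyme source was a microsome fraction from CHO-S cells transfected with human mPGES-1, diluted to 5 μg/mL protein in reduced GSH (12.5 mmol/L KPB), preincubated with compound for 10 min at room temperature with 2% final DMSO. Reaction started with PGH2 and run 45 seconds at room temperature. PGE2 measured by HTRF.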

| Compound | pIC50 ([1]; Homo sapiens, A549, A549 cell) | 0.5% polysorbate 80 solubility (%) at pH 8.5 [2] | pIC50 [3] | pIC50 ([1]; A549 cell) |
| --- | --- | --- | --- | --- |
| CCC[C@@H](C)Oc1ccc(-c2nc(O)nc(-c3cc(CNC(=O)C(CC)(CC)OC)ccc3Cl)n2)cn1 [Example 79, 2-ethyl-N-(4-chloro-3-{4-hydroxy-6-[6-((R)-1-methylbutoxy)pyridin-3-yl]-1,3,5-triazin-2-yl}benzyl)-2-methoxybutanamide] | 8.59 | 0.157% | 8.34 |  |
| CCC(OC)(C(=O)NCc1ccc(Cl)c(-c2nc(O)nc(-c3ccc(Cl)c(C(C)C)c3)n2)c1)C(F)(F)F (stereo not shown) [Example 139] |  |  | 8.27 | 8.68 |
| CCC[C@H](C)Oc1ccc(-c2nc(O)nc(-c3cc(CNC(=O)C4(C(F)(F)F)CCCC4)ccc3Cl)n2)cn1 [Example 140] | 9.10 |  | 8.00 |  |
| CCC[C@H](C)Oc1ccc(-c2nc(O)nc(-c3cc(CNC(=O)C4(CF)CCCCCC4)ccc3Cl)n2)cn1 [Example 141] | 8.42 |  | 7.85 |  |

Results, then the compound that gave them:

| pIC50 ([1]; Homo sapiens, A549, A549 cell) | 0.5% polysorbate 80 solubility (%) at pH 8.5 [2] | pIC50 [3] | pIC50 ([1]; A549 cell) | Compound |
| --- | --- | --- | --- | --- |
| 8.42 | 0.136% | 9.15 |  | CO[C@](C)(C(=O)NCc1ccc(Cl)c(-c2nc(O)nc(-c3cccc(C(C)(C)C)c3)n2)c1)C(F)(F)F [Example 66, (R)—N-{3-[4-(3-tert-butylphenyl)-6-hydroxy-1,3,5-triazin-2-yl]-4-chlorobenzyl}-3,3,3-trifluoro-2-methoxy-2-methylpropionamide] |
| 8.47 | 0.057% | 9.15 |  | CC(C)c1cccc(-c2nc(O)nc(-c3cc(CNC(=O)C4(C(F)(F)F)CCCCC4)ccc3Cl)n2)c1 [Example 71, 1-trifluoromethylcyclohexanecarboxylic acid 4-chloro-3-[4-hydroxy-6-(3-isopropylphenyl)-1,3,5-triazin-2-yl]benzylamide] |
| 8.30 | 0.071% | 8.68 |  | CCCCCCOc1ccc(-c2nc(O)nc(-c3cc(CNC(=O)C(C)(C)OC)ccc3Cl)n2)cn1 [Example 81, N-{4-chloro-3-[4-(6-hexyloxypyridin-3-yl)-6-hydroxy-1,3,5-triazin-2-yl]benzyl}-2-methoxy-2-methylpropionamide] |
| 8.68 | 0.032% | 8.59 |  | CC(C)(C)c1cccc(-c2nc(O)nc(-c3cc(CNC(=O)C4(C(F)(F)F)CCCCC4)ccc3Cl)n2)c1 [Example 107, 1-trifluoromethylcyclohexanecarboxylic acid 3-[4-(3-tert-butylphenyl)-6-hydroxy-1,3,5-triazin-2-yl]-4-chlorobenzylamide] |
| 8.72 | 0.109% | 8.54 |  | CCC[C@H](C)Oc1ccc(-c2nc(O)nc(-c3cc(CNC(=O)C(CC)(CC)CF)ccc3Cl)n2)cn1 [Example 131] |
| 8.59 |  | 8.33 |  | CCC(OC)(C(=O)NCc1ccc(Cl)c(-c2nc(O)nc(-c3ccc(Cl)c(C(C)C)c3)n2)c1)C(F)(F)F (stereo not shown) [Example 137] |
|  |  | 8.82 | 8.08 | CCC(OC)(C(=O)NCc1ccc(Cl)c(-c2nc(O)nc(-c3cccc(C4(C)CC4)c3)n2)c1)C(F)(F)F (stereo not shown) [Example 138] |
